Data: patent US20240285621A1, “PYRAZOLYL-PYRIMIDINE DERIVATIVES AS KINASE INHIBITORS” (NERVIANO MEDICAL SCIENCES S.R.L., priority 2020, published 2024)

Legend:
SYK [1] = target: T1, SYK (Homo sapiens, UniProt P43405); experiment: Biochemical kinase inhibition assay on SYK, KinaseGlo assay format; settings: Table A; KinaseGlo format, pre-activated SYK 2.5 nM, ATP 2.5 μM, substrate BioDBn*327 125 uM, 60 minutes at rt; read-out: IC50 (μM) Kglo
T1 construct: Recombinant proteins SYK FL was produced at NMS via baculo virus infection in insect cells; His; GST; made in house; host or cells: insect cells (baculovirus)

SYK [2] = target: T1, SYK; experiment: Biochemical kinase inhibition assay on SYK, ADPGlo assay format; settings: Table A, pre-activated SYK 0.6 nM, ATP 60 μM, BioDBn*327 125 μM, 60 minutes at room temperature

| SMILES | IC50 (SYK [1]) [µM] | IC50 (SYK [2]) [µM] |
| --- | --- | --- |
| COc1cc(Nc2nccc(-c3cc(C(=O)NCCN(C)C)n(C)n3)n2)cc(OC)c1 [Example 72, 3-{2-[(3,5-dimethoxyphenyl)amino]pyrimidin-4-yl}-N-[2-(dimethylamino)ethyl]-1-methyl-1H-pyrazole-5-carboxamide] | 0.034 | 0.087 |
| C[C@@H](CN(C)C)NC(=O)c1cc(-c2ccnc(Nc3cnn(C)c3)n2)nn1C [Example 75, N-[(2S)-1-(dimethylamino)propan-2-yl]-1-methyl-3-{2-[(1-methyl-1H-pyrazol-4-yl)amino]pyrimidin-4-yl}-1H-pyrazole-5-carboxamide] | 0.273 | 0.473 |
| COc1cncc(Nc2nccc(-c3cc(C(=O)N[C@@H](C)CN4CCC4)n(C)n3)n2)c1 [Example 80, N-[(2S)-1-(azetidin-1-yl)propan-2-yl]-3-{2-[(5-methoxypyridin-3-yl)amino]pyrimidin-4-yl}-1-methyl-1H-pyrazole-5-carboxamide] | 0.044 | 0.081 |

Now those with a lower IC50 (SYK [1]), led by results:

| IC50 (SYK [1]) [µM] | IC50 (SYK [2]) [µM] | SMILES |
| --- | --- | --- |
| 0.015 | 0.033 | COc1cc(C#N)cc(Nc2nccc(-c3cc(C(=O)N[C@@H](C)CN(C)C)n(C)n3)n2)c1 [Example 78, 3-{2-[(3-cyano-5-methoxyphenyl)amino]pyrimidin-4-yl}-N-[(2S)-1-(dimethylamino)propan-2-yl]-1-methyl-1H-pyrazole-5-carboxamide] |
| 0.007 | 0.026 | COc1cc(C#N)cc(Nc2nccc(-c3cc(C(=O)N[C@@H](C)CN4CCC4)n(C)n3)n2)c1 [Example 79, N-[(2S)-1-(azetidin-1-yl)propan-2-yl]-3-{2-[(3-cyano-5-methoxyphenyl)amino]pyrimidin-4-yl}-1-methyl-1H-pyrazole-5-carboxamide] |
